Laboratory results from PMC9674830, “A glutamine-based single α-helix scaffold to target globular proteins” (Nature Communications, 2022).

Molecular target: T1, RAP74-CTD (Homo sapiens, UniProt P35269)
T1 construct: spanning residues 450-517; His6-MBP (with TEV site) (N, cleaved yes); made in house; host or cells: E. coli Rosetta (DE3)pLysS
T1 sequence (P35269 450-517): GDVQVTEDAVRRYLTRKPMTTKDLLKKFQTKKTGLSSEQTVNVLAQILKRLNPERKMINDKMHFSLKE
Test: NMR chemical shift perturbation titration of peptides into 15N RAP74-CTD (KD)
Format: binding
Conditions: 15 molar equivalents of peptide, NMR
Description: Recombinant samples with ^15N isotope enrichment of the C-terminal domain of subunit 1 of the general transcription regulator TFIIF (RAP74-CTD), spanning residues 450-517, were obtained as described previously. A codon-optimized synthetic gene cloned in a pDONR221 vector was obtained from GeneArt (Thermo Fisher Scientific, Waltham, MA, USA) and subcloned into a pDEST-His6MBP vector obtained from Addgene. Rosetta (DE3)pLysS competent cells (Novagen, Merck KGaA, Darmstadt, Germany) were grown in MOPS medium with ^15NH4Cl as the only nitrogen source (310 K, induction at OD600 = 0.7, 1 mM IPTG, harvesting 3 h after induction). Soluble fractions of cell lysates from sonication in lysis buffer (50 mM Tris-HCl, 1 M NaCl, 10 mM imidazole, pH 8.0) were purified by IMAC, and fractions containing the His6MBP-TEV-RAP74-CTD fusion were dialyzed at 277 K overnight against cleavage buffer (50 mM Tris-HCl, 200 mM NaCl, 0.5 mM EDTA, pH 8.0) in the presence of TEV protease (50 μg/mL). A second IMAC step was performed and the flow-through containing the RAP-CTD was loaded onto a HiTrap SP HP cation exchange column followed by a size exclusion chromatography step on a Superdex 75 GL 10/300 column equilibrated with NMR buffer (20 mM sodium phosphate, 0.1% trifluoroacetic acid, pH 7.4), both mounted in an Äkta Purifier System (GE Healthcare, Chicago, IL, USA). The sample was concentrated to 100 μM using an Amicon Ultra 15 mL centrifugal filter (Merck KGaA, Darmstadt, Germany).
Before the experiment, both the protein and the peptide were dialyzed (277 K, two dialysis steps) in the same preparation of NMR buffer (20 mM sodium phosphate, 0.1% trifluoroacetic acid, pH 7.4), using a Pur-A-Lyzer (Sigma-Aldrich, Burlington, MA, USA) and a Micro Float-A-Lyzer (Spectrum Laboratories, San Francisco, CA, USA) respectively. The chemical shift assignment of RAP74-CTD was reported previously (BMRB code 27288). Averaged ^1H and ^15N chemical shift perturbations (CSPs) were calculated as:2 ΔδAV=(Δδ1H)^2+1/5Δδ15N^2
Dissociation constants, KD, and averaged CSP amplitude, Δδmax, for δ, δstpl, γ and γstpl peptide binding to RAP74-CTD were obtained by a global fitting (nonlinear regression) of the 10% peaks with the largest averaged CSPs to the following single-site binding model (1:1 stoichiometry):3 Δδ=Δδmax([Protein]+[Peptide]+KD)−([Protein]+[Peptide]+KD)^2−4[Protein][Peptide]/2[Protein]

- CSPs (ppm) induced by peptide on 15N RAP74-CTD, residue 452 (RAP74-CTD residue 452): 0.00133 ppm
- CSPs (ppm) induced by peptide on 15N RAP74-CTD, residue 453 (RAP74-CTD residue 453): 0.00174 ppm
- CSPs (ppm) induced by peptide on 15N RAP74-CTD, residue 454 (RAP74-CTD residue 454): 0.00213 ppm
- CSPs (ppm) induced by peptide on 15N RAP74-CTD, residue 455 (RAP74-CTD residue 455): 0.00368 ppm
- CSPs (ppm) induced by peptide on 15N RAP74-CTD, residue 457 (RAP74-CTD residue 457): 0.000762 ppm
- CSPs (ppm) induced by peptide on 15N RAP74-CTD, residue 458 (RAP74-CTD residue 458): 0.00141 ppm
- CSPs (ppm) induced by peptide on 15N RAP74-CTD, residue 459 (RAP74-CTD residue 459): 0.00114 ppm
- CSPs (ppm) induced by peptide on 15N RAP74-CTD, residue 460 (RAP74-CTD residue 460): 0.00136 ppm
- CSPs (ppm) induced by peptide on 15N RAP74-CTD, residue 461 (RAP74-CTD residue 461): 0.00237 ppm
- CSPs (ppm) induced by peptide on 15N RAP74-CTD, residue 462 (RAP74-CTD residue 462): 0.00141 ppm
- CSPs (ppm) induced by peptide on 15N RAP74-CTD, residue 463 (RAP74-CTD residue 463): 0.00149 ppm
- CSPs (ppm) induced by peptide on 15N RAP74-CTD, residue 464 (RAP74-CTD residue 464): 0.002 ppm
- CSPs (ppm) induced by peptide on 15N RAP74-CTD, residue 465 (RAP74-CTD residue 465): 0.000665 ppm
- CSPs (ppm) induced by peptide on 15N RAP74-CTD, residue 466 (RAP74-CTD residue 466): 0.00337 ppm
- CSPs (ppm) induced by peptide on 15N RAP74-CTD, residue 468 (RAP74-CTD residue 468): 0.000677 ppm
- CSPs (ppm) induced by peptide on 15N RAP74-CTD, residue 469 (RAP74-CTD residue 469): 0.00178 ppm
- CSPs (ppm) induced by peptide on 15N RAP74-CTD, residue 470 (RAP74-CTD residue 470): 0.00475 ppm
- CSPs (ppm) induced by peptide on 15N RAP74-CTD, residue 471 (RAP74-CTD residue 471): 0.006 ppm
- CSPs (ppm) induced by peptide on 15N RAP74-CTD, residue 472 (RAP74-CTD residue 472): 0.003 ppm
- CSPs (ppm) induced by peptide on 15N RAP74-CTD, residue 473 (RAP74-CTD residue 473): 0.00131 ppm
- CSPs (ppm) induced by peptide on 15N RAP74-CTD, residue 474 (RAP74-CTD residue 474): 0.000952 ppm
- CSPs (ppm) induced by peptide on 15N RAP74-CTD, residue 475 (RAP74-CTD residue 475): 0.0011 ppm
- CSPs (ppm) induced by peptide on 15N RAP74-CTD, residue 476 (RAP74-CTD residue 476): 0.00225 ppm
- CSPs (ppm) induced by peptide on 15N RAP74-CTD, residue 477 (RAP74-CTD residue 477): 0.0034 ppm
- CSPs (ppm) induced by peptide on 15N RAP74-CTD, residue 478 (RAP74-CTD residue 478): 0.00316 ppm
- CSPs (ppm) induced by peptide on 15N RAP74-CTD, residue 484 (RAP74-CTD residue 484): 0.00185 ppm
- CSPs (ppm) induced by peptide on 15N RAP74-CTD, residue 487 (RAP74-CTD residue 487): 0.009 ppm
- CSPs (ppm) induced by peptide on 15N RAP74-CTD, residue 488 (RAP74-CTD residue 488): 0.000614 ppm
- CSPs (ppm) induced by peptide on 15N RAP74-CTD, residue 489 (RAP74-CTD residue 489): 0.00261 ppm
- CSPs (ppm) induced by peptide on 15N RAP74-CTD, residue 490 (RAP74-CTD residue 490): 0.002 ppm
- CSPs (ppm) induced by peptide on 15N RAP74-CTD, residue 491 (RAP74-CTD residue 491): 0.002 ppm
- CSPs (ppm) induced by peptide on 15N RAP74-CTD, residue 492 (RAP74-CTD residue 492): 0.003 ppm
- CSPs (ppm) induced by peptide on 15N RAP74-CTD, residue 493 (RAP74-CTD residue 493): 0.00151 ppm
- CSPs (ppm) induced by peptide on 15N RAP74-CTD, residue 494 (RAP74-CTD residue 494): 0.00469 ppm
- CSPs (ppm) induced by peptide on 15N RAP74-CTD, residue 495 (RAP74-CTD residue 495): 0.00146 ppm
- CSPs (ppm) induced by peptide on 15N RAP74-CTD, residue 496 (RAP74-CTD residue 496): 0.00171 ppm
- CSPs (ppm) induced by peptide on 15N RAP74-CTD, residue 497 (RAP74-CTD residue 497): 0.00134 ppm
- CSPs (ppm) induced by peptide on 15N RAP74-CTD, residue 498 (RAP74-CTD residue 498): 0.00172 ppm
- CSPs (ppm) induced by peptide on 15N RAP74-CTD, residue 499 (RAP74-CTD residue 499): 0.000579 ppm
- CSPs (ppm) induced by peptide on 15N RAP74-CTD, residue 500 (RAP74-CTD residue 500): 0.00095 ppm
- CSPs (ppm) induced by peptide on 15N RAP74-CTD, residue 501 (RAP74-CTD residue 501): 0.00151 ppm
- CSPs (ppm) induced by peptide on 15N RAP74-CTD, residue 503 (RAP74-CTD residue 503): 0.000881 ppm
- CSPs (ppm) induced by peptide on 15N RAP74-CTD, residue 504 (RAP74-CTD residue 504): 0.002 ppm
- CSPs (ppm) induced by peptide on 15N RAP74-CTD, residue 505 (RAP74-CTD residue 505): 0.002 ppm
- CSPs (ppm) induced by peptide on 15N RAP74-CTD, residue 506 (RAP74-CTD residue 506): 0.008 ppm
- CSPs (ppm) induced by peptide on 15N RAP74-CTD, residue 507 (RAP74-CTD residue 507): 0.004 ppm
- CSPs (ppm) induced by peptide on 15N RAP74-CTD, residue 509 (RAP74-CTD residue 509): 0.00319 ppm
- CSPs (ppm) induced by peptide on 15N RAP74-CTD, residue 510 (RAP74-CTD residue 510): 0.000691 ppm
- CSPs (ppm) induced by peptide on 15N RAP74-CTD, residue 512 (RAP74-CTD residue 512): 0.00469 ppm
- CSPs (ppm) induced by peptide on 15N RAP74-CTD, residue 513 (RAP74-CTD residue 513): 0.00335 ppm
- CSPs (ppm) induced by peptide on 15N RAP74-CTD, residue 514 (RAP74-CTD residue 514): 0.001 ppm
- CSPs (ppm) induced by peptide on 15N RAP74-CTD, residue 515 (RAP74-CTD residue 515): 0.00145 ppm
- CSPs (ppm) induced by peptide on 15N RAP74-CTD, residue 516 (RAP74-CTD residue 516): 0.00117 ppm
- CSPs (ppm) induced by peptide on 15N RAP74-CTD, residue 517 (RAP74-CTD residue 517): 0.000251 ppm
Sequence: KKPGASLAALQALQALQAAQAAKKY [(P3-7)2, Gln-based single α-helix scaffold peptide]
